From US20230117034A1, “PYRAZOLOTRIAZINES” (Bayer Aktiengesellschaft, priority 2019, published 2023) come the findings set out here.

Some results are limits rather than exact numbers.

In test [1] the test system is CAL-120, human breast adenocarcinoma cells. In words: Proliferation assay CAL-120 (crystal violet, 4 days). As to conditions: Homo sapiens, CAL-120, 96 h, CAL-120 cells, median, read-out: Prolif-CAL-120, IC50-[mol/l] (median). The class given is cell-based. The method, boiled down:
(§1)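 Plated 4,000 cells/well, 10% FCS; 24 h later treated 0.01-10 µmol/L cpd (DMSO 0.1%), 4 d. Fix glutaraldehyde, stain 0.1% crystal violet pH 3.0, elute acetic acid, A595. Normalized to t0 plate/untreated; 4-param IC50.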

The test system of test [2] is MDA-MB-231, human breast cancer cells. Kind of test: Proliferation assay MDA-MB-231 (crystal violet, 4 days). The class given is cell-based. Conditions: Homo sapiens, MDA-MB-231, 96 h, MDA-MB-231 cells, median, read-out: Prolif-MDA MB-231, IC50-[mol/l] (median). In a few lines: as §1
Test [3] has as its target T1, CDK12 (nuclear staining in CAL-120 cells) (Homo sapiens, UniProt Q9NYV4).
T1 construct: endogenous in cells; host or cells: CAL-120 human breast cancer cells (DSMZ ACC 459)
Kind of test: CDK12 nuclear protein level: immunofluorescence/high content analysis (CAL-120). The class given is cell-based. As to conditions: for DC50: CAL-120 cells, 24 h, immunofluorescence, 50% reduction of nuclear CDK12 staining intensity, median, read-out: CDK12 degradation IF, DC50- [mol/l] (median); for (IC50 CDK12 high ATP) to (Degradation DC50 CDK12) ratio: ratio of IC50 CDK12 high ATP kinase assay to DC50 CDK12 degradation (IF, CAL-120). In a few lines:
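CAL-120 cells were treated with compound for 24 h at 37 °C, fixed with PFA and immunostained for CDK12. Nuclear CDK12 intensity was quantified by automated image analysis and normalized to DMSO and control. DC50 is the concentration giving 50% reduction of nuclear staining.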

Test [4] concerns the target CDK12/CycK (Homo sapiens, UniProt Q9NYV4). Kind of test: CDK12/CycK high ATP kinase assay (TR-FRET, 2 mM ATP). The class given is biochemical. Conditions: 2 mM ATP (high ATP); median; read-out: CDK12/CyclinK, 2 mM ATP (high ATP), IC50-[mol/l] (median). The method, boiled down:
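His-tagged human CDK12/CycK (~0.75 nM) pre-incubated 15 min with compound, then 60 min at 22 °C with 2 mM ATP and 1 µM biotinylated peptide (HEPES pH 7.5, 20 mM MgCl2). EDTA stop; phospho-Ser62 antibody/Eu anti-rabbit and streptavidin-XL665 TR-FRET, 665/620 nm ratio normalised to give IC50.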
(In general: TR-FRET usually uses a lanthanide donor and a delayed reading to cut background.)

Chain of CDK12/CycK (Q9NYV4 with tags, fused parts or gaps): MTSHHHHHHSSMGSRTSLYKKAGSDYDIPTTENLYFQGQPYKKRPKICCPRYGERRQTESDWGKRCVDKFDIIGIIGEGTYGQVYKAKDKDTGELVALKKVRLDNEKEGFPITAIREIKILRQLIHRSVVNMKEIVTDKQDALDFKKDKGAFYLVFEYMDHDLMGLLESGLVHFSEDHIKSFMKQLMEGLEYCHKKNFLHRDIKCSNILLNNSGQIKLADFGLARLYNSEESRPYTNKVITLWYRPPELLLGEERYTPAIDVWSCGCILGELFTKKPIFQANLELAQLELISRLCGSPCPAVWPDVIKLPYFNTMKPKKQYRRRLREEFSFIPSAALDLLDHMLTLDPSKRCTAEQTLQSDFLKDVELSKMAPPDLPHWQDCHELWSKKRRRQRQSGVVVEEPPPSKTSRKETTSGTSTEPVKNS
Chain of CDK12/CycK (O75909 1-300 partner limits assumed): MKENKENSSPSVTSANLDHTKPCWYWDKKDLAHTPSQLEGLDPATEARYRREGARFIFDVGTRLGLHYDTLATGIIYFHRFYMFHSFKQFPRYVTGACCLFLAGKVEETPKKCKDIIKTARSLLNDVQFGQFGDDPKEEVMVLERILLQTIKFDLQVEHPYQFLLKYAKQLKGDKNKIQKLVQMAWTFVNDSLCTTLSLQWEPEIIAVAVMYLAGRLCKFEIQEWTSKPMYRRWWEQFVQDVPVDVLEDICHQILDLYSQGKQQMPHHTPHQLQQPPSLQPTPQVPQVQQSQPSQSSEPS
T1 sequence (Q9NYV4 whole entry): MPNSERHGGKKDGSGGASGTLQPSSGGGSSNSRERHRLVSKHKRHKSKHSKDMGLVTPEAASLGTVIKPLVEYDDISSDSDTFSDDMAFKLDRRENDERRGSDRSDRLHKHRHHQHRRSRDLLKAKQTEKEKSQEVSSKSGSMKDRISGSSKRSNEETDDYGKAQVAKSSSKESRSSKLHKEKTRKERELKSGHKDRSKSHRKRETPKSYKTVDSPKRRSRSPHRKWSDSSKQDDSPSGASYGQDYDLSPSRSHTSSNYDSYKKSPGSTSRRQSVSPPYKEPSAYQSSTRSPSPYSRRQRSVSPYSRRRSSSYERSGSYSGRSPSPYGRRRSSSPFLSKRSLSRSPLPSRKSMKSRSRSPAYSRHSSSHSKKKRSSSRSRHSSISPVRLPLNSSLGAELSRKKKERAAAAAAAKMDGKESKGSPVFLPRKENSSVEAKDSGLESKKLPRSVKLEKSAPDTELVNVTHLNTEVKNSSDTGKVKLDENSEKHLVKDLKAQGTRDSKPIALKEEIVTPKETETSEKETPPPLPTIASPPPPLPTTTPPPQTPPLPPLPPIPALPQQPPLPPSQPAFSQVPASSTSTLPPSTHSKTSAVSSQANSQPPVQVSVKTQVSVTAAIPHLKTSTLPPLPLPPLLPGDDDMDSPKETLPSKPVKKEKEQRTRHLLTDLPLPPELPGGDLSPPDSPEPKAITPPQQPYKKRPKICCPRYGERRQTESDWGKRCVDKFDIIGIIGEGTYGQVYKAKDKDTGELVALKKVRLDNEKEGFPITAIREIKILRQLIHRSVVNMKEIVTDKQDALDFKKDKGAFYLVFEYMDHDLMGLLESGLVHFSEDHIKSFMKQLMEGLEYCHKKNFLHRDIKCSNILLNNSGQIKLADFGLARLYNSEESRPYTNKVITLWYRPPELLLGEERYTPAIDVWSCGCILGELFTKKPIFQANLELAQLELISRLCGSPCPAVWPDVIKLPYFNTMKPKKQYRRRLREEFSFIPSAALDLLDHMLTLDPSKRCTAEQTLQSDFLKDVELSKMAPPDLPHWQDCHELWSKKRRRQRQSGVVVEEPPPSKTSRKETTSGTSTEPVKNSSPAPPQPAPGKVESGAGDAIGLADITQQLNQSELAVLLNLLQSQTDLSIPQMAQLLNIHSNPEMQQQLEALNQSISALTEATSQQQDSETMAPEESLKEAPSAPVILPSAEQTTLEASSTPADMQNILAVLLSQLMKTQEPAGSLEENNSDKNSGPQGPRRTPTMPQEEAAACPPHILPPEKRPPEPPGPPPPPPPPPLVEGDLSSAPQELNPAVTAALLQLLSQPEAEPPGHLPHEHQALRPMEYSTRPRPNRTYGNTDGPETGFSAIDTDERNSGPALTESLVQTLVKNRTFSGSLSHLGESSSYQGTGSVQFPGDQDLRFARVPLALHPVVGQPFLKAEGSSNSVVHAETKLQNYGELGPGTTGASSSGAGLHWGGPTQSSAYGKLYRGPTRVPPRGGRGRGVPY
T1 sequence (O75909 whole entry partner): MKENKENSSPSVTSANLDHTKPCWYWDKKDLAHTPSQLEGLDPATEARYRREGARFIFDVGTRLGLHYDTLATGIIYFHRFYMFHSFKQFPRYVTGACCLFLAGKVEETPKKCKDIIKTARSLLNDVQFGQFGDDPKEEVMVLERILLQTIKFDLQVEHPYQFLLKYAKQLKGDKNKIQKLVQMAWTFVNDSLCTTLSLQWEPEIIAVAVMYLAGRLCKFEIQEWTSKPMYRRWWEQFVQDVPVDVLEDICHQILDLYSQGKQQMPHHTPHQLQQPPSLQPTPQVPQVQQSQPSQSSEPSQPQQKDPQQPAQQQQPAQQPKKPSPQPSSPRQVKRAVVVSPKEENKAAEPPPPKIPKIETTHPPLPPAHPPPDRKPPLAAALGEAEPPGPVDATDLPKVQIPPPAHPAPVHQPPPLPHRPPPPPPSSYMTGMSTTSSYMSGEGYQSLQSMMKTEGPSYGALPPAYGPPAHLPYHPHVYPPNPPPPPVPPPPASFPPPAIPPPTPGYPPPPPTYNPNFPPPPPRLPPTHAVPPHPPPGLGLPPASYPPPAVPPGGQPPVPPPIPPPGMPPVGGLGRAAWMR

Take `CN1CCN(c2nc(NCc3nc4cc(Cl)c(Cl)cc4[nH]3)n3ncc(-c4cnn(C)c4)c3n2)CC1` [Example 420, N-[(5,6-dichloro-1H-benzimidazol-2-yl)methyl]-2-(4-methylpiperazin-1-yl)-8-(1-methyl-1H-pyrazol-4-yl)pyrazolo[1,5-a][1,3,5]triazin-4-amine]: the results for the IC50 in test [1], in test [2] and in test [4] were 209 nM, 525 nM and more than 20000 nM, respectively. Further, in test [3], the DC50 turned out to be 80.6 nM. Also, the “(IC50 CDK12 high ATP) to (Degradation DC50 CDK12) ratio” value in test [3] is on record as more than 248.

For the compound `FC(F)n1cc(-c2cnn3c(NCc4nc5cc(Cl)c(Cl)cc5[nH]4)nc(N4CCOCC4)nc23)cn1` [Example 423, N-[(5,6-dichloro-1H-benzimidazol-2-yl)methyl]-8-[1-(difluoromethyl)-1H-pyrazol-4-yl]-2-(morpholin-4-yl)pyrazolo[1,5-a][1,3,5]triazin-4-amine], the IC50 in test [1] is 12.3 nM; in test [2], 18.2 nM; in test [4] it was more than 12900 nM. Moreover, the DC50 in test [3] was 17.8 nM. Besides, the “(IC50 CDK12 high ATP) to (Degradation DC50 CDK12) ratio” value in test [3] is more than 720.

`Cc1cnn2c(NCc3nc4ccccc4[nH]3)nc(N(C)CC(C)(C)O)nc12` [Example 397, 1-[(4-{[(1H-benzimidazol-2-yl)methyl]amino}-8-methylpyrazolo[1,5-a][1,3,5]triazin-2-yl)(methyl)amino]-2-methylpropan-2-ol]: the results for the IC50 in test [1], in test [2] and in test [4] were 171 nM, 399 nM and more than 17500 nM, respectively. Further, the DC50 in test [3] turned out to be 28.1 nM. In test [3], the “(IC50 CDK12 high ATP) to (Degradation DC50 CDK12) ratio” value is given as more than 623.

On to `CCc1cnn2c(NCc3nc4c(OC)cccc4[nH]3)nc(N3CCOCC3)nc12` [Example 433, 8-ethyl-N-[(4-methoxy-1H-benzimidazol-2-yl)methyl]-2-(morpholin-4-yl)pyrazolo[1,5-a][1,3,5]triazin-4-amine], for which the IC50 in test [1] worked out at 13.1 nM; in test [2], 40.3 nM; in test [4], 2700 nM. The DC50 in test [3] stood at 4.32 nM. In addition, the “(IC50 CDK12 high ATP) to (Degradation DC50 CDK12) ratio” value in test [3] was found to be 626.

Regarding `Fc1ccc2[nH]c(CNc3nc(N4CCOCC4)nc4c(-c5nccs5)cnn34)nc2c1F` [Example 413, N-[(4,5-difluoro-1H-benzimidazol-2-yl)methyl]-2-(morpholin-4-yl)-8-(1,3-thiazol-2-yl)pyrazolo [1,5-a][1,3,5]triazin-4-amine], the IC50 was 69.9 nM in test [1], 298 nM in test [2] and more than 20000 nM in test [4]. The DC50 in test [3] came to 19.8 nM. In test [3], the “(IC50 CDK12 high ATP) to (Degradation DC50 CDK12) ratio” value is listed as more than 1012.

Take `O=C(O)C(F)(F)F.c1ccc2[nH]c(CNc3nc(N4CCOCC4)nc4c(-c5ccnnc5)cnn34)nc2c1` [Example 438, trifluoroacetic acid N-[(1H-benzimidazol-2-yl)methyl]-2-(morpholin-4-yl)-8-(pyridazin-4-yl)pyrazolo[1,5-a][1,3,5]triazin-4-amine]: the results for the IC50 in test [1], in test [2] and in test [4] were 44.6 nM, 283 nM and more than 7860 nM, respectively. Besides, in test [3], the DC50 was 138 nM. In addition, the “(IC50 CDK12 high ATP) to (Degradation DC50 CDK12) ratio” value in test [3] is given as more than 57.

Consider `Fc1ccc2[nH]c(CNc3nc(N4CCOCC4)nc4c(C(F)(F)F)cnn34)nc2c1F` [Example 426, N-[(4,5-difluoro-1H-benzimidazol-2-yl)methyl]-2-(morpholin-4-yl)-8-(trifluoromethyl)pyrazolo [1,5-a][1,3,5]triazin-4-amine], for which the values for the IC50 in test [1], in test [2] and in test [4] were 3.57 nM, 4.19 nM and 23.9 nM, respectively. In test [3], the DC50 stood at 0.751 nM. In test [3], the “(IC50 CDK12 high ATP) to (Degradation DC50 CDK12) ratio” value was 32.

Consider `COc1cccc2[nH]c(CNc3nc(N4CCOCC4)nc4c(-c5nccs5)cnn34)nc12` [Example 414, N-[(4-methoxy-1H-benzimidazol-2-yl)methyl]-2-(morpholin-4-yl)-8-(1,3-thiazol-2-yl)pyrazolo [1,5-a][1,3,5]triazin-4-amine], for which the IC50 was 80.4 nM in test [1], 687 nM in test [2] and more than 5710 nM in test [4]. Besides, in test [3], the DC50 came out at 32.5 nM. For the same compound, the “(IC50 CDK12 high ATP) to (Degradation DC50 CDK12) ratio” value in test [3] is on record as more than 176.

For `COc1cccc2nc(CNc3nc(N4CCN(C)CC4)nc4c(-c5nccs5)cnn34)[nH]c12` [Example 416, N-[(7-methoxy-1H-benzimidazol-2-yl)methyl]-2-(4-methylpiperazin-1-yl)-8-(1,3-thiazol-2-yl)pyrazolo[1,5-a][1,3,5]triazin-4-amine], the IC50 in test [1] was 358 nM; in test [2] it was 986 nM; in test [4], more than 20000 nM. The DC50 in test [3] was found to be 26.1 nM. The “(IC50 CDK12 high ATP) to (Degradation DC50 CDK12) ratio” value in test [3] was more than 765.

For the compound `CN(C)CCOc1nc(NCc2nc3ccccc3[nH]2)n2ncc(Br)c2n1` [Example 399, N-[(1H-benzimidazol-2-yl)methyl]-8-bromo-2-[2-(dimethylamino)ethoxy]pyrazolo[1,5-a][1,3,5]triazin-4-amine], the IC50 in test [1] is 83 nM; in test [2], 384 nM; in test [4] it was more than 20000 nM. Also, the DC50 in test [3] turned out to be 66 nM. In addition, the “(IC50 CDK12 high ATP) to (Degradation DC50 CDK12) ratio” value in test [3] is more than 303.

`CN1CCN(c2nc(NCc3nc4c(F)c(F)ccc4[nH]3)n3ncc(-c4nccs4)c3n2)CC1` [Example 415, N-[(4,5-difluoro-1H-benzimidazol-2-yl)methyl]-2-(4-methylpiperazin-1-yl)-8-(1,3-thiazol-2-yl)pyrazolo[1,5-a][1,3,5]triazin-4-amine]: the results for the IC50 in test [1], in test [2] and in test [4] were 268 nM, 584 nM and more than 20000 nM, respectively. Besides, in test [3], the DC50 came to 105 nM. Besides, the “(IC50 CDK12 high ATP) to (Degradation DC50 CDK12) ratio” value in test [3] is recorded as more than 191.

`CCc1cnn2c(NCc3nc4ccccc4[nH]3)nc(N3CCOCC3)nc12` [Example 431, N-[(1H-benzimidazol-2-yl)methyl]-8-ethyl-2-(morpholin-4-yl)pyrazolo[1,5-a][1,3,5]triazin-4-amine]: the values for the IC50 in test [1], in test [2] and in test [4] were 7.02 nM, 28.4 nM and 2810 nM, respectively. In addition, the DC50 in test [3] was determined as 3.39 nM. Also, in test [3], the “(IC50 CDK12 high ATP) to (Degradation DC50 CDK12) ratio” value is reported as 829.

For the compound `Fc1ccc2[nH]c(CNc3nc(N4CCOCC4)nc4c(-c5cncs5)cnn34)nc2c1F.O=C(O)C(F)(F)F` [Example 442, trifluoroacetic acid N-[(4,5-difluoro-1H-benzimidazol-2-yl)methyl]-2-(morpholin-4-yl)-8-(1,3-thiazol-5-yl)pyrazolo[1,5-a][1,3,5]triazin-4-amine], the figures for the IC50 in test [1], in test [2] and in test [4] were 2.61 nM, 6.38 nM and 583 nM, respectively. In addition, the DC50 in test [3] came to 4.68 nM. Moreover, the “(IC50 CDK12 high ATP) to (Degradation DC50 CDK12) ratio” value in test [3] is given as 125.

For `Brc1cnn2c(NCc3nc4ccccc4[nH]3)nc(OC3CCOCC3)nc12` [Example 405, N-[(1H-benzimidazol-2-yl)methyl]-8-bromo-2-[(oxan-4-yl)oxy]pyrazolo[1,5-a][1,3,5]triazin-4-amine], the values for the IC50 in test [1], in test [2] and in test [4] were 135 nM, 439 nM and more than 20000 nM, respectively. The DC50 in test [3] was 113 nM. Besides, the “(IC50 CDK12 high ATP) to (Degradation DC50 CDK12) ratio” value in test [3] was more than 176.

Turning to `CCc1cnn2c(NCc3nc4c(F)c(F)ccc4[nH]3)nc(N3CCOCC3)nc12` [Example 432, N-[(4,5-difluoro-1H-benzimidazol-2-yl)methyl]-8-ethyl-2-(morpholin-4-yl)pyrazolo[1,5-a][1,3,5]triazin-4-amine], the values for the IC50 in test [1], in test [2] and in test [4] were 3.66 nM, 8.53 nM and 2300 nM, respectively. Also, the DC50 in test [3] turned out to be 0.948 nM. Moreover, the “(IC50 CDK12 high ATP) to (Degradation DC50 CDK12) ratio” value in test [3] amounted to 2425.

On to `CN1CCN(c2nc(NCc3nc4ccccc4[nH]3)n3ncc(C4CC4(F)F)c3n2)CC1` (stereo not shown) [Example 428, N-(1H-benzimidazol-2-ylmethyl)-8-(2,2-difluorocyclopropyl)-2-(4-methylpiperazin-1-yl)pyrazolo[1,5-a][1,3,5]triazin-4-amine], for which the IC50 in test [1] was 47.4 nM; in test [2], 174 nM; in test [4], more than 20000 nM. Moreover, in test [3], the DC50 is 7.03 nM. In test [3], the “(IC50 CDK12 high ATP) to (Degradation DC50 CDK12) ratio” value is recorded as more than 2847.

Take `CN1CCN(c2nc(NCc3nc4ccccc4[nH]3)n3ncc(CC(F)(F)F)c3n2)CC1` [Example 436, N-[(1H-benzimidazol-2-yl)methyl]-2-(4-methylpiperazin-1-yl)-8-(2,2,2-trifluoroethyl)pyrazolo [1,5-a][1,3,5]triazin-4-amine]: the IC50 in test [1] was 108 nM; in test [2], 416 nM; in test [4], more than 20000 nM. Further, in test [3], the DC50 is 14.7 nM. The “(IC50 CDK12 high ATP) to (Degradation DC50 CDK12) ratio” value in test [3] is listed as more than 1357.
